Assay results from BindingDB's records for doi:10.1074/jbc.M209367200 (University of Padova, 2003).

Target: Casein kinase II subunit alpha (Zea mays, UniProt P28523)
Assay: Kinase Inhibition Assay
Conditions: pH 7.5; 22 °C
Description: In vitro kinase assay using purified enzyme, was incubated at room temperature with substrate, and test compounds in the presence of 100 uM ATP/ [gamma-33P] ATP. 33P incorporation was measured with scintillation counter. IC50 values were calculated from dose-response curves; from these calculated apparent inhibition constants (Ki) were obtained using the Cheng-Prusoff equation: Ki = IC50/ (1 + ([ATP]/Km)).

Casein kinase II subunit alpha, sequence (P28523 whole entry): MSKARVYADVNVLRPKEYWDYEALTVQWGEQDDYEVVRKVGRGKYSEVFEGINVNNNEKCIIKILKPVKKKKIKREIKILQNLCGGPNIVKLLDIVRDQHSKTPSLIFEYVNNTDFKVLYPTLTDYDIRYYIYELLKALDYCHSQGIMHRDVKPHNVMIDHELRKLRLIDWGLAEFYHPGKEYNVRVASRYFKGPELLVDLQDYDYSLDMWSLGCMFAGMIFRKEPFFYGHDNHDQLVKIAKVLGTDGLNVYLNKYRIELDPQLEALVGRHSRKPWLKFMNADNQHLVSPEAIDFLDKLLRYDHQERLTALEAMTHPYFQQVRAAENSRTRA

Ki | SMILES
> 40 µM | O=C1c2cccc(O)c2C(=O)c2c(O)cccc21 [1,8-dihydroxy-anthraquinone]
> 40 µM | O=c1c2c(O)cccc2oc2cccc(O)c12 [1,8-dihydroxy-9H-xanthen-9-one]
